# Results as given in patent publication US9988420B2, “Cytotoxic peptides and conjugates thereof” (priority 2013, dated 2018).
# Read-outs that look alike come from different tables or passages of the source. Starred links: 1 amine or outer side, 2 acyl side, 3 side chain; linkers in the order of their positions; H or OH if unused. Non-standard residues stand in square brackets, D forms with d. Residues, ends and D or L forms follow the SMILES beside them. *: point of attachment. Dolaproine = CO[C@@H]([C@@H]1CCCN1)[C@@H](C)C(=O)O; X1 = O=C([C@@H]1[C@H]2CC[C@H](C2)N1[*:1])[*:2]; X3 = NC(=O)CN1[C@@H]2CC[C@@H](C2)[C@H]1C(=O)*; Dil = CC[C@H](C)[C@H](NC)[C@@H](CC(=O)O)OC; X4 = N#CCN1[C@@H]2CC[C@@H](C2)[C@H]1C(=O)*; X2 = CN1[C@@H]2CC[C@@H](C2)[C@H]1C(=O)*; Phe(ol) = N[C@H](CO)Cc1ccccc1
# Assays:
# Assay in all cases: In vitro cell killing assay of payloads (cell proliferation, Cell-Titer-Glo)
# Assay type in all cases: cell-based
# NCI-N87 cells = conditions: Homo sapiens, 120 h, Cell-Titer-Glo after five days
# Description: (§1) For evaluation of the cell killing potency of the cytotoxic peptides of Formula (I) in vitro, cell proliferation assays were performed in parallel with 8 cell lines: MDA-MB231 clone 16, clone 40, JimT1, HCC1954, H526, KU812, CMK11-5 cells and Jurkat cells. In addition, in vitro, cell proliferation assays were performed using 3 other cell lines: A375, SKBR3 and NCI-N87. All the cell lines are described in more detail in Example 106 and were also used to assess the in vitro potency of immunoconjugates of the invention. The cell proliferation assays were conducted with Cell-Titer-Glo™ (Promega) five days after cells were incubated with various concentrations of ADCs (Riss et al., (2004) Assay Drug Dev Technol. 2:51-62).
# A375 cells = conditions: Homo sapiens, A-375, 120 h, Cell-Titer-Glo after five days
# Description: as §1
# HCC1954 cells = conditions: Homo sapiens, read-out: In vitro cell killing (IC50 (nM)) HCC1954
# JimT1 cells = conditions: Homo sapiens, JIMT-1, 120 h, read-out: In vitro cell killing (IC50 (nM)) JimT1
# H526 cells = conditions: Homo sapiens, read-out: In vitro cell killing (IC50 (nM)) NCI-H526
# [1] = 120 h, HCC1954 cells, Cell-Titer-Glo after five days, Table 2b
# [2] = JimT1 cells, Cell-Titer-Glo after five days, Table 2b
# [3] = 120 h, NCI-H526 cells, Cell-Titer-Glo after five days, Table 2b
SMILES,IC50 (NCI-N87 cells) [nM],IC50 (A375 cells) [nM],IC50 (HCC1954 cells; [1]) [nM],IC50 (JimT1 cells; [2]) [nM],IC50 (H526 cells; [3]) [nM],"IC50 (HCC1954 cells; HCC1954, 120 h) [nM]",IC50 (JimT1 cells) [nM],"IC50 (H526 cells; NCI-H526, 120 h) [nM]"
"CC[C@H](C)[C@@H]([C@@H](CC(=O)N1CCC[C@H]1[C@H](OC)[C@@H](C)C(=O)N[C@@H](Cc1ccccc1)c1nnc(-c2ccccc2)o1)OC)N(C)C(=O)[C@@H](NC(=O)[C@@H]1[C@H]2CC[C@H](C2)N1C)C(C)C [Compound 71, (1R,3S,4S)-N-((S)-1-(((3R,4S,5S)-3-methoxy-1-((S)-2-((1R,2R)-1-Methoxy-2-methyl-3-oxo-3-(((S)-2-phenyl-1-(5-phenyl-1,3,4-oxadiazol-2-yl)ethyl)amino)propyl)pyrrolidin-1-yl)-5-methyl-1-oxoheptan-4-yl)(methyl)amino)-3-methyl-1-oxobutan-2-yl)-2-methyl-2-azabicyclo[2.2.1]heptane-3-carboxamide]",0.091,0.119,0.075,0.124,0.352,–,–,–
"CC[C@H](C)[C@@H]([C@@H](CC(=O)N1CCC[C@H]1[C@H](OC)[C@@H](C)C(=O)N[C@@H](Cc1ccccc1)c1ncccn1)OC)N(C)C(=O)[C@@H](NC(=O)[C@@H]1[C@H]2CC[C@H](C2)N1C)C(C)C [Compound 69, (1R,3S,4S)-N-((S)-1-(((3R,4S,5S)-3-Methoxy-1-((S)-2-((1R,2R)-1-methoxy-2-methyl-3-oxo-3-(((S)-2-phenyl-1-(pyrimidin-2-yl)ethyl)amino)propyl)pyrrolidin-1-yl)-5-methyl-1-oxoheptan-4-yl)(methyl)amino)-3-methyl-1-oxobutan-2-yl)-2-methyl-2-azabicyclo[2.2.1]heptane-3-carboxamide]",0.142,0.092,0.065,0.091,0.189,–,–,–
"CC[C@H](C)[C@@H]([C@@H](CC(=O)N1CCC[C@H]1[C@H](OC)[C@@H](C)C(=O)N[C@H](COC)Cc1ccccc1)OC)N(C)C(=O)[C@@H](NC(=O)[C@@H]1[C@H]2CC[C@H](C2)N1C)C(C)C [Compound 67, (1R,3S,4S)-N-((S)-1-(((3R,4S,5S)-3-Methoxy-1-((S)-2-((1R,2R)-1-methoxy-3-(((S)-1-methoxy-3-phenylpropan-2-yl)amino)-2-methyl-3-oxopropyl)pyrrolidin-1-yl)-5-methyl-1-oxoheptan-4-yl)(methyl)amino)-3-methyl-1-oxobutan-2-yl)-2-methyl-2-azabicyclo[2.2.1]heptane-3-carboxamide]",–,0.244,–,–,–,0.239,0.369,0.614
"CC[C@H](C)[C@@H]([C@@H](CC(=O)N1CCC[C@H]1[C@H](OC)[C@@H](C)C(=O)N[C@H](CO)Cc1ccccc1)OC)N(C)C(=O)[C@@H](NC(=O)[C@@H]1[C@H]2CC[C@H](C2)N1CC#N)C(C)C [Compound 63, (1R,3S,4S)-2-(Cyanomethyl)-N-((S)-1-(((3R,4S,5S)-1-((S)-2-((1R,2R)-3-(((S)-1-hydroxy-3-phenylpropan-2-yl)amino)-1-methoxy-2-methyl-3-oxopropyl)pyrrolidin-1-yl)-3-methoxy-5-methyl-1-oxoheptan-4-yl)(methyl)amino)-3-methyl-1-oxobutan-2-yl)-2-azabicyclo[2.2.1]heptane-3-carboxamide] (X4-V[Dil][Dolaproine][Phe(ol)])",2.09,14.3,1.64,5.08,6.49,–,–,–
"CC[C@H](C)[C@@H]([C@@H](CC(=O)N1CCC[C@H]1[C@H](OC)[C@@H](C)C(=O)N[C@H](CO)Cc1ccccc1)OC)N(C)C(=O)[C@@H](NC(=O)[C@@H]1[C@H]2CC[C@H](C2)N1CC(N)=O)C(C)C [Compound 64, (1R,3S,4S)-2-(2-Amino-2-oxoethyl)-N-((S)-1-(((3R,4S,5S)-1-((S)-2-((1R,2R)-3-(((S)-1-hydroxy-3-phenylpropan-2-yl)amino)-1-methoxy-2-methyl-3-oxopropyl)pyrrolidin-1-yl)-3-methoxy-5-methyl-1-oxoheptan-4-yl)(methyl)amino)-3-methyl-1-oxobutan-2-yl)-2-azabicyclo[2.2.1]heptane-3-carboxamide] (X3-V[Dil][Dolaproine][Phe(ol)])",1.21,25.6,1.09,4.15,5.74,–,–,–
"CC[C@H](C)[C@@H]([C@@H](CC(=O)N1CCC[C@H]1[C@H](OC)[C@@H](C)C(=O)N[C@@H](Cc1ccccc1)c1cc[nH]n1)OC)N(C)C(=O)[C@@H](NC(=O)[C@@H]1[C@H]2CC[C@H](C2)N1C)C(C)C [Compound 68, (1R,3S,4S)-N-((S)-1-(((3R,4S,5S)-3-Methoxy-1-((S)-2-((1R,2R)-1-methoxy-2-methyl-3-oxo-3-(((S)-2-phenyl-1-(1H-pyrazol-3-yl)ethyl)amino)propyl)pyrrolidin-1-yl)-5-methyl-1-oxoheptan-4-yl)(methyl)amino)-3-methyl-1-oxobutan-2-yl)-2-methyl-2-azabicyclo[2.2.1]heptane-3-carboxamide]",0.2,0.596,0.127,0.251,0.428,–,–,–
"CC[C@H](C)[C@@H]([C@@H](CC(=O)N1CCC[C@H]1[C@H](OC)[C@@H](C)C(=O)N[C@H](Cc1ccccc1)c1ncccn1)OC)N(C)C(=O)[C@@H](NC(=O)[C@@H]1[C@H]2CC[C@H](C2)N1C)C(C)C [Compound 70, (1R,3S,4S)-N-((S)-1-(((3R,4S,5S)-3-methoxy-1-((S)-2-((1R,2R)-1-methoxy-2-methyl-3-oxo-3-(((R)-2-phenyl-1-(pyrimidin-2-yl)ethyl)amino)propyl)pyrrolidin-1-yl)-5-methyl-1-oxoheptan-4-yl)(methyl)amino)-3-methyl-1-oxobutan-2-yl)-2-methyl-2-azabicyclo[2.2.1]heptane-3-carboxamide]",3.81,2.16,1.38,2.36,4.73,–,–,–
"CC[C@H](C)[C@@H]([C@@H](CC(=O)N1CCC[C@H]1[C@H](OC)[C@@H](C)C(=O)N[C@@H](Cc1ccccc1)C(=O)O)OC)N(C)C(=O)[C@@H](NC(=O)[C@@H]1[C@H]2CC[C@H](C2)N1C)C(C)C [Compound 54, (S)-2-((2R,3R)-3-((S)-1-((3R,4S,5S)-4-((S)-N,3-Dimethyl-2-((1R,3S,4S)-2-methyl-2-azabicyclo[2.2.1]heptane-3-carboxamido)butanamido)-3-methoxy-5-methylheptanoyl)pyrrolidin-2-yl)-3-methoxy-2-methylpropanamido)-3-phenylpropanoic acid] (X2-V[Dil][Dolaproine]F-OH)",7.59,27.4,7.18,17.1,54.8,–,–,–
"CC[C@H](C)[C@@H]([C@@H](CC(=O)N1CCC[C@H]1[C@H](OC)[C@@H](C)C(=O)N[C@H](CO)Cc1ccccc1)OC)N(C)C(=O)[C@@H](NC(=O)[C@@H]1[C@H]2CC[C@H](C2)N1C(C)=O)C(C)C [Compound 65, (1R,3S,4S)-2-Acetyl-N-((S)-1-(((3R,4S,5S)-1-((S)-2-((1R,2R)-3-(((S)-1-hydroxy-3-phenylpropan-2-yl)amino)-1-methoxy-2-methyl-3-oxopropyl)pyrrolidin-1-yl)-3-methoxy-5-methyl-1-oxoheptan-4-yl)(methyl)amino)-3-methyl-1-oxobutan-2-yl)-2-azabicyclo[2.2.1]heptane-3-carboxamide] (Ac-[X1]V[Dil][Dolaproine][Phe(ol)])",3.67,31.3,0.93,6.88,3.82,–,–,–
